This is an account of results in ChEMBL document CHEMBL4043168, “The design and SAR of a novel series of 2-aminopyridine based LRRK2 inhibitors” (Bioorg Med Chem Lett, 2017).

The structures appear in SMILES notation. pIC50: −log10 of the molar value.

In general, efflux ratio refers to a quotient of directional permeabilities that is used to spot active efflux. The term pIC50 denotes the negative decadic logarithm of the IC50, by convention in mol/L. Broadly, the inhibition is the relative decrease from the control value, in per cent.

Data set [1] can be described thus: Intrinsic clearance in rat liver microsomes. The class given is ADME, microsome. The following applies: read-out: CLH (converted). (Liver microsomes are vesicles of endoplasmic reticulum, rich in cytochrome P450 enzymes.)
For the next data set, the system named is MDR1. As to the kind of experiment: Efflux ratio of apparent permeability from basolateral to apical over apical to basolateral side in MDCK cells harboring MDR1. The class given is ADME, cell-based, Canis lupus familiaris. The conditions noted are these: dog.
Data set [2] deals with T1, Leucine-rich repeat serine/threonine-protein kinase 2 (Homo sapiens, UniProt Q5S007). Put plainly: Inhibition wild type LRRK2 (unknown origin) Ser935 phosphorylation in HEK293 cells. It counts as cell-based.
T1 sequence (Q5S007 whole entry, the tested form may be a part): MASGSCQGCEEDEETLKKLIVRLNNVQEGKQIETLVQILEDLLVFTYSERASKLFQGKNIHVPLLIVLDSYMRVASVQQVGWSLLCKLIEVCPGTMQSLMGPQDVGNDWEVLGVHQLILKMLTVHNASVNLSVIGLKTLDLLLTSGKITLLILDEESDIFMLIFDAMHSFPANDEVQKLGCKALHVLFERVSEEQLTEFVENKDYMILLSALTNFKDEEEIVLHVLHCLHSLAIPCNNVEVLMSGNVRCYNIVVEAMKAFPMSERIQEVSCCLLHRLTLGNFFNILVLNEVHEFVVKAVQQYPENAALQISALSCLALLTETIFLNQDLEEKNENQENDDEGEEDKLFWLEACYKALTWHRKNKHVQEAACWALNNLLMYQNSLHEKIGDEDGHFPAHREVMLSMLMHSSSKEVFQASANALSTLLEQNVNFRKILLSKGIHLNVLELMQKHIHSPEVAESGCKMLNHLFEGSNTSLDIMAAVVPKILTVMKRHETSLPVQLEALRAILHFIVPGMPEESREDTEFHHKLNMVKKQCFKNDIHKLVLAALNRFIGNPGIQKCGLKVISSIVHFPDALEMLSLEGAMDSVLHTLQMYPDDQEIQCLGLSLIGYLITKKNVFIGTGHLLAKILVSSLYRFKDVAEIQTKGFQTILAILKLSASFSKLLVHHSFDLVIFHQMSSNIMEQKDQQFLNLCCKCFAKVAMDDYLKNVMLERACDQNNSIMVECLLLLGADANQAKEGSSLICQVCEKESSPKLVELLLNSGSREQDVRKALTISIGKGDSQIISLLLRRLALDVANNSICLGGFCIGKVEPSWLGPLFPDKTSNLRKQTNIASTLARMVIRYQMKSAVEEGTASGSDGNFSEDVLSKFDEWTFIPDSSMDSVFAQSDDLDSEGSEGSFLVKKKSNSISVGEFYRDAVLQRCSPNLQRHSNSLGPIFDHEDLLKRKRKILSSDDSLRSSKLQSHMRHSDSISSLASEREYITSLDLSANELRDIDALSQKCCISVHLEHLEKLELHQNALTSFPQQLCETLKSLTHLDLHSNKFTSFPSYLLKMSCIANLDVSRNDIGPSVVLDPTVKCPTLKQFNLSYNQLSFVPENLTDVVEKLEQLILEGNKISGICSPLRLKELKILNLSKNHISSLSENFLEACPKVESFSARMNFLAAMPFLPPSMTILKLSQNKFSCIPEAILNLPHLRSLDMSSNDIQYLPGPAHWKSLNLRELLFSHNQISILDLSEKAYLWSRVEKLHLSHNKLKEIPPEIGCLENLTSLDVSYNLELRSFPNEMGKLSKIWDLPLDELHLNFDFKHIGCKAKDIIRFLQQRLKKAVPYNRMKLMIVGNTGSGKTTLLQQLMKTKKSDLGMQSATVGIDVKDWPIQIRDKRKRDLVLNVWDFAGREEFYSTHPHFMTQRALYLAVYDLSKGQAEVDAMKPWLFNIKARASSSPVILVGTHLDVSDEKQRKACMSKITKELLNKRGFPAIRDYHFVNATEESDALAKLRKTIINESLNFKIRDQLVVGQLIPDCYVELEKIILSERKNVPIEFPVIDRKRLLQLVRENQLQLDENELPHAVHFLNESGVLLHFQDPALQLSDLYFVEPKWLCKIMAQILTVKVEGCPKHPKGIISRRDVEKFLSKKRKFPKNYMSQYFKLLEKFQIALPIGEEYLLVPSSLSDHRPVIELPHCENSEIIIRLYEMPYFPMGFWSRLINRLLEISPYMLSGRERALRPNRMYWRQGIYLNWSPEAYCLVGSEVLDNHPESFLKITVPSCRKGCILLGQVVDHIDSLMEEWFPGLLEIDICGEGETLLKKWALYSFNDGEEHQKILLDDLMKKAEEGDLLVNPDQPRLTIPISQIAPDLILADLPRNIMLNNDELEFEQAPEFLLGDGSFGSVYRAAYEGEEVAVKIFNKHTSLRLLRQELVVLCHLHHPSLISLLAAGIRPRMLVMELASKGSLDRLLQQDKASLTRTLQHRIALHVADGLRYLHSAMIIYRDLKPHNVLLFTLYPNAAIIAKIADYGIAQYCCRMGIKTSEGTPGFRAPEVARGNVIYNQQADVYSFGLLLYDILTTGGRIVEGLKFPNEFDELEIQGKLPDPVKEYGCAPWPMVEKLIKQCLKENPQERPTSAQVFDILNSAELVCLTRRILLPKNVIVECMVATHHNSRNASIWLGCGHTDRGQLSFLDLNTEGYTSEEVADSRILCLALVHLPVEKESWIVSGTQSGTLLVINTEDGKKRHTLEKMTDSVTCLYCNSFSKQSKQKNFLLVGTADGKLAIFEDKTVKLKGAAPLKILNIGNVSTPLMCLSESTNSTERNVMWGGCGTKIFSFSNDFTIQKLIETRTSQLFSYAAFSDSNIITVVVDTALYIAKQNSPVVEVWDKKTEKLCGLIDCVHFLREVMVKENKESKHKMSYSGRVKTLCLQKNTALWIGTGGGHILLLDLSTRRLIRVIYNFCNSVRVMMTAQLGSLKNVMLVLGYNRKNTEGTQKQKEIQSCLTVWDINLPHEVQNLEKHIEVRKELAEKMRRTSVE
Data set [3] deals with Tyrosine-protein kinase JAK2 (Homo sapiens) (UniProt O60674). Put plainly: Inhibition of JAK2 domain2 activation Loop (IGDFGLTKVLPQDKEYYK) in human PBMC at 1 uM.
For data set [4], the target named is Serine/threonine-protein kinase 10 (Homo sapiens) (UniProt O94804). Put plainly: Inhibition of LOK conserved Lys1 (NKETGALAAAKVIETK) in human PBMC at 1 uM.
The target of data set [5] is Mitogen-activated protein kinase kinase kinase 1 (Homo sapiens) (UniProt Q13233). As to the kind of experiment: Inhibition of MAP3K1 conserved Lys2 (DVKGANLLIDSTGQR) in human PBMC at 1 uM.
Sequence of Mitogen-activated protein kinase kinase kinase 1 (Homo sapiens) (Q13233 whole entry): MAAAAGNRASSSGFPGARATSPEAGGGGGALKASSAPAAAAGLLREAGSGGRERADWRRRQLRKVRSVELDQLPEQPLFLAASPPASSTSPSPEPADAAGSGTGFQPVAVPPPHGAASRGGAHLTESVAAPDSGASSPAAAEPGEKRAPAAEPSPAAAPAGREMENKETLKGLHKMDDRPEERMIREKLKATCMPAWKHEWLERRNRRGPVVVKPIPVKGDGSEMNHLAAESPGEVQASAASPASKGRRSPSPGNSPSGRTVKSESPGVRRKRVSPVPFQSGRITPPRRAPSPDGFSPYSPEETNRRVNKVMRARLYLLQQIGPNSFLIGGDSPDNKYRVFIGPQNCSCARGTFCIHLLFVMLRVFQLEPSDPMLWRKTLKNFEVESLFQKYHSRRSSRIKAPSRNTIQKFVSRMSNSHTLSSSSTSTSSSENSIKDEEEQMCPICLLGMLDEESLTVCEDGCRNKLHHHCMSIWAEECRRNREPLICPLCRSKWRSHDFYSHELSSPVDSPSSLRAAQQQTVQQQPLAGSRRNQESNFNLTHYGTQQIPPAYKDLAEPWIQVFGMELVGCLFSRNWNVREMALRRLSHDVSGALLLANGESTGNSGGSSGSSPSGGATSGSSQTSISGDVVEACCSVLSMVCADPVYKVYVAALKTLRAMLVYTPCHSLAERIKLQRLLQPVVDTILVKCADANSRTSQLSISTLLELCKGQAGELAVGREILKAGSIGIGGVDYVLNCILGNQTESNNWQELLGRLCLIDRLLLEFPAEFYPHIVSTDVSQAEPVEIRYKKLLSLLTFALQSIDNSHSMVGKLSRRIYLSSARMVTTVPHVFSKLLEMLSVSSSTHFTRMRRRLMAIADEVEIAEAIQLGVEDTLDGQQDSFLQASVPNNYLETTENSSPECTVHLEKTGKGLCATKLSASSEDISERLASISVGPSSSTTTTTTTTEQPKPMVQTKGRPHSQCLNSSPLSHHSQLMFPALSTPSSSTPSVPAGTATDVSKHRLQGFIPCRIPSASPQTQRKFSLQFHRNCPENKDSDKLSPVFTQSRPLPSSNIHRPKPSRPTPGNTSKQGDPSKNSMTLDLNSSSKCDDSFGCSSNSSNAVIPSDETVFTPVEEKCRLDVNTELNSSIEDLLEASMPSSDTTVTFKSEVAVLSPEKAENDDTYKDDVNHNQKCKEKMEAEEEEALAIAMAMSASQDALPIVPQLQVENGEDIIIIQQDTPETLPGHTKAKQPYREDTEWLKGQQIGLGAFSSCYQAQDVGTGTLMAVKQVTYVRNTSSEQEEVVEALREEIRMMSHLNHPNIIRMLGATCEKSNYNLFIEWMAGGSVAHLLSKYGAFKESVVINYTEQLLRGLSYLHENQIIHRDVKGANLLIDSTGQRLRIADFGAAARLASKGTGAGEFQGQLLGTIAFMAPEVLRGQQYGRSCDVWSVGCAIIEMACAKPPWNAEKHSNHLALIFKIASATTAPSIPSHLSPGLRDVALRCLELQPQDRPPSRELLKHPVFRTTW
For data set [6], the target named is Mitogen-activated protein kinase 12 (Homo sapiens) (UniProt P53778). As to the kind of experiment: Inhibition of p38g conserved Lys2 (DLKPGNLAVNEDCELK) in human PBMC at 1 uM.
Sequence of Mitogen-activated protein kinase 12 (Homo sapiens) (P53778 whole entry): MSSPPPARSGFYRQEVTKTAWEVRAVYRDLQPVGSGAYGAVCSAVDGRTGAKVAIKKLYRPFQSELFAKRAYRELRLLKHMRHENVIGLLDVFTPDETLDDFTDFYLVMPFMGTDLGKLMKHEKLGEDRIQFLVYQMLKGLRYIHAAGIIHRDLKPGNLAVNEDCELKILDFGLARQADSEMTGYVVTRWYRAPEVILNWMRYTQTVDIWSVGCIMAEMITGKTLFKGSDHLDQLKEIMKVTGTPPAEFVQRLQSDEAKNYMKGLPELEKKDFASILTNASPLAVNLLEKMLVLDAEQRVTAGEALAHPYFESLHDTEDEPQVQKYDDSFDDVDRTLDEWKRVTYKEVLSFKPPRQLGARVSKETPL
The target of data set [7] is Serine/threonine-protein kinase TAO2 (Homo sapiens) (UniProt Q9UL54). Put plainly: Inhibition of TAO2 conserved Lys2 (DVKAGNILLSEPGLVK) in human PBMC at 1 uM.
Data set [8] concerns the target Serine/threonine-protein kinase WNK3 (Homo sapiens) (UniProt Q9BYP7). Put plainly: Inhibition of Wnk3 conserved Lys2 (DLKCDNIFITGPTGSVK) in human PBMC at 1 uM.
The target of data set [9] is Tyrosine-protein kinase BTK (Homo sapiens) (UniProt Q06187). Put plainly: Inhibition of BTK labeling at activation Loop (YVLDDEYTSSVGSKFPVR) in human PBMC at 0.1 uM.
Data set [10] deals with Calcium/calmodulin-dependent protein kinase type II subunit alpha (Homo sapiens) (UniProt Q9UQM7). As to the kind of experiment: Inhibition of CaMK2a labeling at conserved Lys2 (DLKPENLLLASK) in human PBMC at 0.1 uM.
Sequence of Calcium/calmodulin-dependent protein kinase type II subunit alpha (Homo sapiens) (Q9UQM7 whole entry): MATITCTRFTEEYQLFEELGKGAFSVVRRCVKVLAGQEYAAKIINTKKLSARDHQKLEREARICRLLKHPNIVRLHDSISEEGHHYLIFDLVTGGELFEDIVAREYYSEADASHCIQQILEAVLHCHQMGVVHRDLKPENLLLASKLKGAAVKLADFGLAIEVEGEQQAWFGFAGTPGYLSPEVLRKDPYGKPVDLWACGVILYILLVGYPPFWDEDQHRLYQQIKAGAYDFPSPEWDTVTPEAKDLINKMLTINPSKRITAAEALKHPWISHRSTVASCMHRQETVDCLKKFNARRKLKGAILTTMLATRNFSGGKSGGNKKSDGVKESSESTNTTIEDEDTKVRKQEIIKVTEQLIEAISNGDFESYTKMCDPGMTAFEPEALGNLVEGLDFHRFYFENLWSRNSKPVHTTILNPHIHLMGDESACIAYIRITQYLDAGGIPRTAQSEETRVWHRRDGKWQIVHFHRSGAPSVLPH
The target of data set [11] is Cyclin-dependent kinase 1 (Homo sapiens) (UniProt P06493). As to the kind of experiment: Inhibition of CDC2 labeling at conserved Lys2 (DLKPQNLLIDDKGTIK) in human PBMC at 0.1 uM.
The target of data set [12] is Cyclin-dependent kinase 2 (Homo sapiens) (UniProt P24941). Put plainly: Inhibition of CDK2 labeling at conserved Lys1 (LTGEVVALKK) in human PBMC at 0.1 uM.
Data set [13] has as its target Cyclin-dependent kinase 5 (Homo sapiens) (UniProt Q00535). As to the kind of experiment: Inhibition of CDK5 labeling at conserved Lys1 (NRETHEIVALKR) in human PBMC at 0.1 uM.
The target in data set [14] is Serine/threonine-protein kinase Chk2 (Homo sapiens) (UniProt O96017). As to the kind of experiment: Inhibition of CHK2 labeling at conserved Lys1 (VAIKIISK) in human PBMC at 0.1 uM.
In data set [15] the target is Mitogen-activated protein kinase 9 (Homo sapiens) (UniProt P45984). As to the kind of experiment: Inhibition of JNK2 conserved Lys2 (DLKPSNIVVK) in human PBMC at 0.1 uM.
For data set [16], the target named is T2, Serine/threonine-protein kinase LATS1 (Homo sapiens) (UniProt O95835).
T2 sequence (whole entry): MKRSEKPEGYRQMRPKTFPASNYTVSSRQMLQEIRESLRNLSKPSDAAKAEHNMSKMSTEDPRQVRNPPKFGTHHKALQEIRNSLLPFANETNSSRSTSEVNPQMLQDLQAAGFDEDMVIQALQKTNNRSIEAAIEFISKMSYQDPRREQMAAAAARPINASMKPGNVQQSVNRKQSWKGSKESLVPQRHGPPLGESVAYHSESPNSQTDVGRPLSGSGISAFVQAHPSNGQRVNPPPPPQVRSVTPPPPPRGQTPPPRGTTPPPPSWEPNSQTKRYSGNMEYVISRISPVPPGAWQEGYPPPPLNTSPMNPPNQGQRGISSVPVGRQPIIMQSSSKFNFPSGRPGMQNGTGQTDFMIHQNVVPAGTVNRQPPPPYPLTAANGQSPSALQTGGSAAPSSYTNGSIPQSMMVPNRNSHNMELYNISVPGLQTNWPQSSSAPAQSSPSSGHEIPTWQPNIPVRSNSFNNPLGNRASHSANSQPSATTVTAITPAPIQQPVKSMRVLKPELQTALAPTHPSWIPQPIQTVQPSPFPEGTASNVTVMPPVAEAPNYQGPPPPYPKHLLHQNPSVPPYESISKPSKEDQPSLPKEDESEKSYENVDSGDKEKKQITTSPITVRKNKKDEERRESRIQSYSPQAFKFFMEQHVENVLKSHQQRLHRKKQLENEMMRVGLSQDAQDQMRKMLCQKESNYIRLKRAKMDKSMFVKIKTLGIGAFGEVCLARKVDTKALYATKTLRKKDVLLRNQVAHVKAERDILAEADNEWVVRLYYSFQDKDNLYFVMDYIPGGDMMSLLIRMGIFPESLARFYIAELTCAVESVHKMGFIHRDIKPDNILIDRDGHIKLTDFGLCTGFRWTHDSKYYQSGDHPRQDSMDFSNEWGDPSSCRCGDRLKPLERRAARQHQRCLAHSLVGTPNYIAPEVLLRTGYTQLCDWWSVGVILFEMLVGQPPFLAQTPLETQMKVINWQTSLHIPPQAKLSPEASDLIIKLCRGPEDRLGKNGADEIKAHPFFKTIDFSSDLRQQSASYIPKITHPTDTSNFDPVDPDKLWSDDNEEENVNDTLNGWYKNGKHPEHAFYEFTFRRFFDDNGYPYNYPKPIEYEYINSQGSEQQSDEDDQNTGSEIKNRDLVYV
As to the kind of experiment: Inhibition of LATS1 conserved Lys2 (DIKPDNILIDR) in human PBMC at 0.1 uM.

Data set [17] addresses T1, Leucine-rich repeat serine/threonine-protein kinase 2. Put plainly: Inhibition of LRRK2 conserved Lys2 (DLKPHNVLLFTLYPNAAIIAK) in human PBMC at 0.1 uM.
Data set [18] deals with Mitogen-activated protein kinase kinase kinase 11 (Homo sapiens) (UniProt Q16584). Put plainly: Inhibition of MLK3 conserved Lys2 (DLKSNNILLLQPIESDDMEHK) in human PBMC at 0.1 uM.
For data set [19], the target named is Serine/threonine-protein kinase SMG1 (Homo sapiens) (UniProt Q96Q15). Put plainly: Inhibition of SMG1 ATP binding site (SYPYLFKGLEDLHLDER) in human PBMC at 0.1 uM.

Regarding `CC(C)n1cc(-c2cc(-c3ccc(CN4CCOCC4)cc3)cnc2N)nn1`, the CLint scaled in [1] was 157 mL/min/kg. In addition, in the data set on MDR1, the efflux ratio is 0.68. For the same compound, the pIC50 in data set [2] is 5.68. The inhibition in data set [3] was 5.2%; in [4] it was 32.2%; in data set [5] it was 83.3%; in [6], 14%; in data set [7], -3.8%; in [8], 2.2%. For the same compound, the inhibition in data set [9] was 14.2%; in data set [10] it was -7.5%; in data set [11], 14.4%; in [12], 23.4%; in data set [13], -1.1%; in data set [14], 9.7%. Also, the inhibition amounted to 25.1% in [15]; 34.9% in data set [16]; 8.6% in data set [17]; 13.8% in [18]; 12.7% in data set [19].
